From patent publication EP4737445A1, “NOVEL SATURATED HETEROCYCLE-SUBSTITUTED HETEROARYL-CARBONOHYDRAZONOYL DICYANIDE COMPOUND AND USE THEREOF” (Korea Institute of Science and Technology, priority 2023, dated 2025)

Columns and labels:
Assay type in all cases: in vitro ADME
[1] = target: T1, CYP1A2 (Homo sapiens, UniProt P05177); assay: CYP isoenzyme activity inhibition in human liver microsomes, CYP1A2; conditions: 10 µM compound; human liver microsomes 0.25 mg/mL; relative to control without compound
T1 construct: human liver microsomes (0.25 mg/mL); from tissue; host or cells: human liver microsomes
T1 sequence (P05177 1-516): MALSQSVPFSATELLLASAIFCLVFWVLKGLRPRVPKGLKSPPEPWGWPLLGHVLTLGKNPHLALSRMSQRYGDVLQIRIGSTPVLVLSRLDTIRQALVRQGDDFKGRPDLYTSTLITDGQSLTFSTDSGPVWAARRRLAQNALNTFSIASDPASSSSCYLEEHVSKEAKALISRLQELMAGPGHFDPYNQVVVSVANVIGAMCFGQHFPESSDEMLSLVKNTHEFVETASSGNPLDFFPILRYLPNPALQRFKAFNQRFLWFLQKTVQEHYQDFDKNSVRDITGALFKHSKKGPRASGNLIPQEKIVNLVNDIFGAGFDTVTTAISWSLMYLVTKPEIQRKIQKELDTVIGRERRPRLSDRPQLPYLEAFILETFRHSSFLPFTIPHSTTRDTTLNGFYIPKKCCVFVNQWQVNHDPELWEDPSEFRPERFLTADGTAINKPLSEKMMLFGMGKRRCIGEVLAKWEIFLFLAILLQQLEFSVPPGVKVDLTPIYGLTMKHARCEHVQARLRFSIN
Procedure: (§1) The CYP isoenzyme activity inhibitory effect by the compounds prepared according to Examples 1 to 46 was confirmed. Specifically, human liver microsomes (0.25 mg/mL), 0.1 M phosphate buffer solution (pH 7.4), a substrate drug cocktail of five drug metabolizing enzymes (Phenacetin 50 µM, Diclofenac 10 µM, S-mephenytoin 100 µM, Dextromethorphan 5 µM, and Midazolam 2.5 µM), and the compounds were added at concentrations of 0 or 10 µM, respectively, and pre-incubated at 37°C for 5 minutes, and then NADPH generation system solution was added and incubated at 37°C for an additional 15 minutes. Thereafter, an acetonitrile solution containing an internal standard (Terfenadine) was added to terminate the reaction, and after centrifugation for 5 minutes (14,000 rpm, 4°C), the supernatant was injected into an LC-MS/MS system to simultaneously analyze the metabolites of the substrate drugs, thereby evaluating the drug metabolizing enzyme inhibitory activity.
(§2) The metabolites of each CYP isoenzyme marker drug generated through the reaction were analyzed using a Shimadzu Nexera XR system and TSQ vantage (Thermo). A Kinetex C18 (2.1 × 100 mm, 2.6 µm, particle size; Phenomenex, USA) was used as the HPLC column, and (A) distilled water containing 0.1% formic acid and (B) acetonitrile containing 0.1% formic acid were used as mobile phases, and a gradient program as shown in Table 6 below was applied.
(§3) The generated metabolites were quantified using MRM (Multiple Reaction Monitoring) quantitative mode, and Xcalibur (version 1.6.1) was used for data analysis. To show the CYP isoenzyme activity inhibitory effect of the novel compounds prepared according to the Examples of the disclosure, the % activity of CYP isoenzymes relative to the control group without compound addition is shown in Table 6 below. Additionally, to confirm the difference in effect according to substituents, Comparative Compounds 1 and 5, which are two compounds that share a similar parent nucleus structure with Compounds 1 to 46 of the disclosure while Cy is substituted with aromatic heteroaryl instead of saturated heterocyclyl, were selected as comparative compounds and their activities are shown together.

[2] = target: T2, CYP2C19 (Homo sapiens, UniProt P33261); assay: CYP isoenzyme activity inhibition in human liver microsomes, CYP2C19; conditions: 10 µM compound; human liver microsomes 0.25 mg/mL; relative to control without compound
T2 construct: human liver microsomes (0.25 mg/mL); from tissue; host or cells: human liver microsomes
T2 sequence (P33261 whole entry): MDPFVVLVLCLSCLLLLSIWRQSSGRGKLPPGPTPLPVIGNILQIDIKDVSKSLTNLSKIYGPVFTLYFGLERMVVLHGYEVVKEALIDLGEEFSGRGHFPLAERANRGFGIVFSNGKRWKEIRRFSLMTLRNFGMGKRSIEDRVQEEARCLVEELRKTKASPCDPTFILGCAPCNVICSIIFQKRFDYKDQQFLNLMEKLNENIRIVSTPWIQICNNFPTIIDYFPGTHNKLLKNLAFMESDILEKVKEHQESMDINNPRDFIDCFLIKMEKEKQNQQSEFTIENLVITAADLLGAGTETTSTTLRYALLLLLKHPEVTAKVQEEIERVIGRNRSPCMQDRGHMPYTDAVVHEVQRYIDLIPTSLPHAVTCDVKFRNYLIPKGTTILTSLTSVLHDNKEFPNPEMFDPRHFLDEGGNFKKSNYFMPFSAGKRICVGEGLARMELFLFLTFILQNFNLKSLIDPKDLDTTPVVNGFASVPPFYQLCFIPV
Procedure: as §1, §2, §3

[3] = Liver microsomal stability, rat; conditions: 1 µM compound; 0.5 mg/mL microsomes; NADPH; 30 minutes at 37°C
Procedure: Liver microsomal stability by the compounds prepared according to Examples 1 to 46 was confirmed. Specifically, four types of liver microsomes (human, dog, rat, and mouse each at 0.5 mg/mL), 0.1 M phosphate buffer solution (pH 7.4), and the compounds at 1 µM concentration were added and pre-incubated at 37°C for 5 minutes, and then NADPH generation system solution was added and incubated at 37°C for an additional 30 minutes. Thereafter, an acetonitrile solution containing an internal standard (chloropropamide) was added to terminate the reaction, and after centrifugation for 5 minutes (14,000 rpm, 4°C), the supernatant was injected into an LC-MS/MS system to analyze the substrate drug, thereby evaluating the metabolic stability of 8 compounds.
The amount of remaining substrate through the reaction was analyzed using a Shimadzu Nexera XR system and TSQ vantage (Thermo). A Kinetex XB-C18 (2.1 × 100 mm, 2.6 µm, particle size; Phenomenex, USA) was used as the HPLC column, and (A) distilled water containing 0.1% formic acid and (B) acetonitrile containing 0.1% formic acid were used as mobile phases. Analyst software (version 1.6.3) and Xcalibur (version 1.6.1) were used for data analysis. The calculated results are shown in Table 5 below: Liver microsomal stability data of novel compounds from […] (human, rat, and mouse).

Compound	CYP1A2 (% activity) [1] [% activity]	CYP2C19 (% activity) [2] [% activity]	Rat microsomes (% remaining) [3] [% remaining]
CN1CCN(c2nc3ccc(NN=C(C#N)C#N)cc3o2)CC1 [Compound 14, (2-(4-methylpiperazin-1-yl)benzo[d]oxazol-6-yl)carbonohydrazonoyl dicyanide]	89.7	95.5	–
N#CC(C#N)=NNc1ccc2nc(N3CC4CCC(C3)O4)oc2c1 [Compound 26, (2-(8-oxa-3-azabicyclo[3.2.1]octan-3-yl)benzo[d]oxazol-6-yl)carbonohydrazonoyl dicyanide]	79.1	82.1	95.1
N#CC(C#N)=NNc1ccc2nc(N3CC[C@@H](F)C3)oc2c1 [Compound 41, (R)-(2-(3-fluoropyrrolidin-1-yl)benzo[d]oxazol-6-yl)carbonohydrazonoyl dicyanide]	71.9	86.7	19.0
Cn1c(N2C3CCC2COC3)nc2ccc(NN=C(C#N)C#N)cc21 [Compound 34, (2-(3-oxa-8-azabicyclo[3.2.1]octan-8-yl)-1-methyl-1H-benzo[d]imidazol-6-yl)carbonohydrazonoyl dicyanide]	85.8	80.6	97.1
N#CC(C#N)=NNc1ccc2nc(NC(=O)N3CC4CCC(C3)O4)sc2c1 [Compound 40, (2-(8-oxa-3-azabicyclo[3.2.1]octane-3-carboxamido)benzo[d]thiazol-6-yl)carbonohydrazonoyl dicyanide]	80.2	65.7	87.7
CC1CN(c2nc3ccc(NN=C(C#N)C#N)cc3s2)CCO1 (centres unmarked) [Compound 12, (2-(2-methylmorpholino)benzo[d]thiazol-6-yl)carbonohydrazonoyl dicyanide]	74.9	84.8	70.1
CC(C)N1CCN(c2nc3ccc(NN=C(C#N)C#N)cc3s2)CC1 [Compound 27, (2-(4-isopropylpiperazin-1-yl)benzo[d]thiazol-6-yl)carbonohydrazonoyl dicyanide]	95.1	95.4	–
CC(C)N1CCN(c2nc3ccc(NN=C(C#N)C#N)cc3o2)CC1 [Compound 28, (2-(4-isopropylpiperazin-1-yl)benzo[d]oxazol-6-yl)carbonohydrazonoyl dicyanide]	95.5	90.8	50.7
CC1COCCN1c1nc2ccc(NN=C(C#N)C#N)cc2s1 (centres unmarked) [Compound 13, (2-(3-methylmorpholino)benzo[d]thiazol-6-yl)carbonohydrazonoyl dicyanide]	83	83.3	47.7
N#CC(C#N)=NNc1ccc2oc(N3CCOCC3)nc2c1 [Compound 3, (2-morpholinobenzo[d]oxazol-5-yl)carbonohydrazonoyl dicyanide]	99.9	> 100	73.0
CCn1c(N2CCOCC2)nc2cc(NN=C(C#N)C#N)ccc21 [Compound 33, (1-ethyl-2-morpholino-1H-benzo[d]imidazol-5-yl)carbonohydrazonoyl dicyanide]	75.5	78.6	96.8
CC1CN(c2nc3ccc(NN=C(C#N)C#N)cc3s2)CC(C)O1 (centres unmarked) [Compound 10, (2-(2,6-dimethylmorpholino)benzo[d]thiazol-6-yl)carbonohydrazonoyl dicyanide]	68.4	83.6	84.8
N#CC(C#N)=NNc1ccc2nc(NC(=O)N3CCOCC3)sc2c1 [Compound 38, (2-(morpholine-4-carboxamido)benzo[d]thiazol-6-yl)carbonohydrazonoyl dicyanide]	83.9	80	96.0
N#CC(C#N)=NNc1ccc2nc(N3CCNCC3)oc2c1 [Compound 25, (2-(piperazin-1-yl)benzo[d]oxazol-6-yl)carbonohydrazonoyl dicyanide]	87	85.7	–
CC(=O)N1CCN(c2nc3ccc(NN=C(C#N)C#N)cc3o2)CC1 [Compound 31, (2-(4-acetylpiperazin-1-yl)benzo[d]oxazol-6-yl)carbonohydrazonoyl dicyanide]	92.7	90.8	88.3
Cn1c(N2C3CCC2COC3)nc2cc(NN=C(C#N)C#N)ccc21 [Compound 35, (2-(3-oxa-8-azabicyclo[3.2.1]octan-8-yl)-1-methyl-1H-benzo[d]imidazol-5-yl)carbonohydrazonoyl dicyanide]	81.5	82	74.1
COC1CCN(c2nc3ccc(NN=C(C#N)C#N)cc3o2)CC1 [Compound 17, (2-(4-methoxypiperidin-1-yl)benzo[d]oxazol-6-yl)carbonohydrazonoyl dicyanide]	83.2	90	59.3
N#CC(C#N)=NNc1ccc2nc(N3C4CCC3COC4)sc2c1 [Compound 11, (2-(3-oxa-8-azabicyclo[3.2.1]octan-8-yl)benzo[d]thiazol-6-yl)carbonohydrazonoyl dicyanide]	83.7	80.3	73.9
CC1CN(c2nc3ccc(NN=C(C#N)C#N)cc3o2)CC(C)O1 (centres unmarked) [Compound 18, (2-(2,6-dimethylmorpholino)benzo[d]oxazol-6-yl)carbonohydrazonoyl dicyanide]	98.9	100	72.9
N#CC(C#N)=NNc1ccc2nc(N3CCOCC3)oc2c1 [Compound 4, (2-morpholinobenzo[d]oxazol-6-yl)carbonohydrazonoyl dicyanide]	86.8	93.4	80.9
N#CC(C#N)=NNc1ccc2nc(N3CCNCC3)sc2c1 [Compound 24, (2-(piperazin-1-yl)benzo[d]thiazol-6-yl)carbonohydrazonoyl dicyanide]	65.1	67.9	–
